Measurements from article PMC8228537, “Acrylonitrile Derivatives against Trypanosoma cruzi: In Vitro Activity and Programmed Cell Death Study” (Pharmaceuticals, 2021).
“Also recorded” adds a separate entry of the source.

Tests used:
[1] = system: epimastigote stage of T. cruzi; assay: Antiparasitic activity, alamarBlue, epimastigotes; format: cell-based, Trypanosoma cruzi; conditions: for IC50: epimastigote stage of T. cruzi (Y strain), 72 h, alamarBlue, mean ± SD, NA: not active; for Selectivity index (SI): ratio of CC50 for J774A.1 and IC50 for epimastigotes of T. cruzi
Method: Epimastigotes of Trypanosoma cruzi (Y strain) were used in this study and cultured in liver infusion tryptose (LIT) medium supplemented with 10% of foetal bovine serum (FBS) at 26 °C.
In a sterile 96-well plate, a serial dilution of acrylonitriles was carried out in LIT medium supplemented with 10% FBS with a final volume of 100 µL. Parasites were added to wells to reach a concentration of 10^5 parasites per well. Finally, a 10% of alamarBlue Cell Viability Reagent® (ThermoFisher Scientific, Waltham, MA, USA) was added into each well, and the plate was incubated for 72 h at 26°C.

[2] = system: epimastigotes of Trypanosoma cruzi; assay: Chromatin condensation analysis (Hoechst 33342/propidium iodide); format: cell-based; conditions: 24 h with the IC90, Figure 1
Method: Vybrant® Apoptosis Assay Kit n°5, Hoechst 33342/Propidium Iodide (ThermoFisher Scientific, MA, USA) was used to determinate the chromatin condensation of the treated parasites. […] Thereafter, Hoechst (5 µg/mL) and propidium iodide (PI) (1 µg/mL) were added and incubated for 20 min at 26 °C. The EVOS® FL Cell Imaging System (ThermoFisher Scientific, MA, USA) was used to capture the fluorescence images, using the DAPI (Hoechst) and RFP (PI) light cubes.

[3] = system: epimastigotes of Trypanosoma cruzi; assay: Reactive oxygen species analysis (CellROX Deep Red); format: cell-based; conditions: 24 h with the IC90, Figure 5
Method: The CellROX® reagent emits red fluorescence in the presence of reactive oxygen species.
The oxidative stress was measured with the CellROX® Deep Red Reagent (ThermoFisher Scientific, MA, USA). […] Finally, the fluorescence was analyzed using the EVOS® FL Cell Imaging System (ThermoFisher Scientific, MA, USA) with the Cy5 light cube.

[4] = Cytotoxicity, alamarBlue, murine macrophages; format: cell-based; conditions: mouse, J774A.1 murine macrophage cell line, J774A.1 murine macrophages, mean ± SD
Method: The cytotoxicity was evaluated against murine macrophages (J774A.1) using the same method mentioned in the antiparasitic assay, based on the alamarBlue Cell Viability Reagent®. In a sterile 96-well plate, 10^4 cells per well were added, then, after the complete adhesion, serial dilutions of the 32 compounds, using a deep well plate, and a 10% of alamarBlue® were joined.

[5] = system: epimastigotes of Trypanosoma cruzi; assay: ATP level analysis (CellTiter-Glo); format: cell-based; conditions: 24 h with the IC90, CellTiter-Glo, Figure 3
Method: Variations in the level of ATP were measured with the CellTiter-Glo® Luminescent Cell Viability Assay (Promega, WI, USA). […] Then, in a white 96-well plate, the epimastigotes were resuspended in 25µL of culture media and mixed with 25 µL of the kit. After 10 min of incubation at room temperature, the luminescence was measured using an EnSpire Multimode Plate Reader® (PerkinElmer). The results were expressed in percentage of production of ATP level relative to the negative control (without any treatment).

[6] = system: epimastigotes of Trypanosoma cruzi; assay: Plasmatic membrane permeability analysis (SYTOX Green); format: cell-based; conditions: 24 h with the IC90, Figure 4
Method: The use of the dye SYTOX® Green reagent means that when the plasmatic permeability is altered, it is possible for the reagent to go inside the cells, joining the parasitic DNA and emitting an intense green fluorescence.
To determine the plasmatic membrane permeability, SYTOX® Green nucleic acid stain fluorescent dye (ThermoFisher Scientific, MA, USA) was used. […] The pellet was resuspended in a 50 µL staining buffer and the Sytox® Green at 1 µM (final concentration). After 15 min of incubation at room temperature, parasites were analyzed. Fluorescence pictures were taken with the EVOS® FL Cell Imaging System (ThermoFisher Scientific, MA, USA).

Trypanosoma cruzi = assay: Programmed cell death study (overall conclusion from the PCD assays); format: cell-based; conditions: overall conclusion from ROS, mitochondrial potential, ATP and chromatin condensation assays
Method: Different assays were performed to elucidate which pathways could be triggered by these acrylonitriles. The most probable cellular process induced by our compounds is the apoptosis or programmed cell death (PCD), in which the inflammatory response is weakly activated, in contrast to a necrotic event, where the inflammatory response is strong.

Row | Compound | IC50 [1] [µM] | Dead cells (propidium iodide red fluorescence) [2] | Reactive oxygen species (CellROX Deep Red fluorescence) [3] | CC50 at 24 h [4] [µM] | IC50 ([1]; Trypanosoma cruzi) [µM] | Selectivity index (SI) [1] | Percentage of ATP level relative to untreated control [5] [%] | Plasma membrane permeability (SYTOX Green fluorescence) [6] | Chromatin condensation (Hoechst 33342 blue fluorescence) [2] | Induction of programmed cell death (apoptosis-like process) (Trypanosoma cruzi)
1 | CCOP(=O)(/C=C/C#N)OCC [Compound Q18, (E)-Diethyl 2-cyanovinylphosphonate] | 14.8 ± 3.06 | red fluorescence, indicating already dead cells | less intense fluorescence |  |  |  |  |  |  | 
2 | N#C/C=C/C(=O)C1CCCCC1 [Compound Q16, (E)-4-Cyclohexyl-4-oxobut-2-enenitrile] |  |  |  | 4.35 ± 0.25 | 7.65 ± 1.51 | 0.57 |  |  |  | 
3 | N#C/C=C/C(=O)c1ccccc1 [Compound Q11, (E)-4-Oxo-4-phenylbut-2-enenitrile] |  |  |  | 5.22 ± 1.02 | 5.53 ± 1.36 | 0.94 |  |  |  | 
4 | CCCCCCCCOC(=O)/C=C\C#N [Compound Q6, (Z)-Octyl 3-cyanoacrylate] |  |  |  | 28.8 ± 2.53 | 51.9 ± 7.69 | 0.55 |  |  |  | 
5 | N#C/C=C/C(=O)Oc1ccccc1 [Compound Q7, (E)-phenyl 3-cyanoacrylate] |  | red fluorescence, indicating already dead cells | less intense fluorescence | 46.5 ± 3.81 | 15.5 ± 1.27 |  | 32.68 | more remarkable | intense blue fluorescence in the nucleus, indicating chromatin condensation | robust evidence of inducing all the physiological features of an apoptosis-like process; also recorded: shown to induce an apoptosis-like cell death
6 | CN(C(=O)/C=C/C#N)c1ccccc1 [Compound Q29, (E)-3-Cyano-N-methyl-N-phenylacrylamide] |  | red fluorescence, indicating already dead cells | less intense fluorescence | 327.9 ± 2.85 | 138 ± 14 |  | < 1 | more remarkable | intense blue fluorescence in the nucleus, indicating chromatin condensation | robust evidence of inducing all the physiological features of an apoptosis-like process
7 | CCOC(=O)/C=C/C#N [Compound Q3, (E)-Ethyl 3-cyanoacrylate] |  |  | most intense red fluorescence | 86.7 ± 22.8 | 46.4 ± 5.73 |  |  |  |  | did not show evidence of causing a programmed cell death mechanism
8 | N#C/C=C\C(=O)c1cccs1 [Compound Q14, (Z)-4-Oxo-4-(thiophen-2-yl)but-2-enenitrile] |  |  |  | 8.39 ± 0.25 | 26.5 ± 2.83 |  |  |  |  | 
9 | CCCCCCCCOC(=O)/C=C/C#N [Compound Q5, (E)-Octyl 3-cyanoacrylate] |  | red fluorescence, indicating already dead cells | less intense fluorescence | 53.9 ± 12.8 | 34.3 ± 1.67 |  |  | more remarkable | intense blue fluorescence in the nucleus, indicating chromatin condensation | robust evidence of inducing all the physiological features of an apoptosis-like process
10 | N#C/C=C/C(=O)c1ccco1 [Compound Q15, (E)-4-(Furan-2-yl)-4-oxobut-2-enenitrile] |  |  |  | 6.66 ± 1.77 | 32.9 ± 0.83 | 0.20 |  |  |  | 
11 | N#C/C=C\C(=O)c1ccccc1 [Compound Q12, (Z)-4-Oxo-4-phenylbut-2-enenitrile] |  |  |  | 7.64 ± 1.21 | 20.9 ± 4.61 | 0.36 |  |  |  | 
12 | CCOC(=O)/C=C\C#N [Compound Q4, (Z)-Ethyl 3-cyanoacrylate] |  |  |  | 43.2 ± 9.83 | 47.3 ± 10.6 | 0.91 |  |  |  | 
13 | N#C/C=C/P(=O)(c1ccccc1)c1ccccc1 [Compound Q19, (E)-3-(diphenylphosphoryl)acrylonitrile] |  | red fluorescence, indicating already dead cells |  | 22.2 ± 3.24 | 14.6 ± 3.44 |  | 30.78 | more remarkable | intense blue fluorescence in the nucleus, indicating chromatin condensation | robust evidence of inducing all the physiological features of an apoptosis-like process
14 | CON(C)C(=O)/C=C/C#N [Compound Q27, (E)-3-Cyano-N-methoxy-N-methylacrylamide] |  | red fluorescence, indicating already dead cells | less intense fluorescence | 480 ± 29.1 | 291 ± 47 |  | < 1 | more remarkable |  | robust evidence of inducing all the physiological features of an apoptosis-like process
15 | N#C/C=C/C(=O)CCc1ccccc1 [Compound Q17, (E)-4-Oxo-6-phenylhex-2-enenitrile] |  |  |  | 5.24 ± 0.7 | 14.1 ± 2.53 | 0.37 |  |  |  | 
16 | N#C/C=C\P(=O)(c1ccccc1)c1ccccc1 [Compound Q20, (Z)-3-(diphenylphosphoryl)acrylonitrile] |  |  |  | 50.6 ± 10.8 | 49.1 ± 1.12 | 1.03 |  |  |  | 
17 | COC(=O)/C=C\C#N [Compound Q2, (Z)-Methyl 3-cyanoacrylate] |  |  |  | 112 ± 15.8 | 25.9 ± 2.78 |  |  |  |  | did not show evidence of causing a programmed cell death mechanism
18 | Cc1ccc(S(=O)(=O)/C=C/C#N)cc1 [Compound Q21, (E)-3-Tosylacrylonitrile] |  |  |  |  | 3.86 ± 0.67 | 0.83 |  |  |  | 
19 | N#C/C=C/C(=O)N1CCCC1 [Compound Q25, (E)-4-Oxo-4-(pyrrolidin-1-yl)but-2-enenitrile] |  |  |  | 374 ± 47.9 | 154 ± 19.8 |  |  |  |  | did not show evidence of causing a programmed cell death mechanism
20 | CCCCCC(=O)/C=C/C#N [Compound Q10, (E)-4-Oxonon-2-enenitrile] |  |  |  | 10.1 ± 1.46 | 11 ± 1.38 | 0.92 |  |  |  | 
21 | CON(C)C(=O)/C=C\C#N [Compound Q28, (Z)-3-Cyano-N-methoxy-N-methylacrylamide] |  |  |  | 210 ± 8.99 |  |  |  |  |  | 
22 | N#C/C=C\C(=O)Oc1ccccc1 [Compound Q8, (Z)-phenyl 3-cyanoacrylate] |  |  | less intense fluorescence | 52.9 ± 4.51 | 4.36 ± 0.26 |  |  |  |  | shown to induce an apoptosis-like cell death
23 | N#C/C=C/C(=O)c1cccs1 [Compound Q13, (E)-4-Oxo-4-(thiophen-2-yl)but-2-enenitrile] |  |  |  | 8.52 ± 0.04 | 25 ± 0.62 | 0.34 |  |  |  | 
24 | COC(=O)/C=C/C#N [Compound Q1, (E)-Methyl 3-cyanoacrylate] |  |  |  | 87.4 ± 7.02 | 17.4 ± 4.75 |  |  |  |  | did not show evidence of causing a programmed cell death mechanism
